Key:
Assay type in all cases: functional
[1] = Juvenile hormone mimic activity in Spodoptera frugiperda (fall armyworm) Sf21 cells assessed as cell number at 3.7 x 10 '-7 M after 5 days by trypan blue exclusion assay
[2] = Juvenile hormone mimic activity in Spodoptera frugiperda (fall armyworm) Sf21 cells assessed as cell number at 3.7 x 10 '-8 M after 5 days by trypan blue exclusion assay
[3] = Juvenile hormone mimic activity in Spodoptera frugiperda (fall armyworm) Sf21 cells assessed as cell number at 3.7 x 10 '-11 M after 5 days by trypan blue exclusion assay
[4] = Juvenile hormone mimic activity in Spodoptera frugiperda (fall armyworm) Sf21 cells assessed as cell number at 3.7 x 10 '-9 M after 5 days by trypan blue exclusion assay
[5] = Juvenile hormone mimic activity in Spodoptera frugiperda (fall armyworm) Sf21 cells assessed as cell number at 3.7 x 10 '-10 M after 5 days by trypan blue exclusion assay
[6] = Juvenile hormone mimic activity in Spodoptera frugiperda (fall armyworm) Sf21 cells assessed as cell number at 3.7 x 10 '-12 M after 5 days by trypan blue exclusion assay

Row | SMILES | Activity [1] [%] | Activity [2] [%] | Activity [3] [%] | Activity [4] [%] | Activity [5] [%] | Activity [6] [%]
1 | CC(C)=CCC/C(C)=C/c1cncn1Cc1ccccc1 | 3.3 | 4.2 | 5.5 | 4.9 | 5.5 | –
2 | COC(C)(C)CCC[C@H](C)C/C=C/C(C)=C/C(=O)OC(C)C [METHOPRENE] | 6 | 6 | 6.7 | 6.5 | 6.9 | 6.4
3 | CCc1ccc(C(=O)NN(C(=O)c2cc(C)cc(C)c2)C(C)(C)C)cc1 [TEBUFENOZIDE] | 4.3 | 5.1 | 5.4 | 5.7 | 5.6 | –

— ChEMBL document CHEMBL3045878, “Effect of Insect Hormone Related Compounds on the Growth of Insect Cells” (1997)
